Assay results as given in patent US20020164574A1 (priority 2001, published 2002).
Entries after “also recorded” stand apart in the source; their conditions may differ.

How the values were obtained:
S. cerevisiae = test: YT MicroPlate carbon utilization test with fungicide treatment; type: cell-based; conditions: sub-inhibitory concentration of fungicide; 48 hours incubation; YT MicroPlate (Biolog); FIG. 2
Protocol: The YT microplate test panel (Biolog, Inc.) is designed as a tool for identifying a broad range of yeasts by their carbon utilization patterns. Initial tests were performed with S. cerevisiae in these plates with and without the addition of various fungicides. Very simply, yeast cells are prepared as a water suspension as per the YT microplate instructions. Prior to loading the plates with cells, a fungicide or solvent control is added to the water suspension. The cells are immediately loaded onto a plate. The plates were incubated at 26° C. as per instructions, and OD490 and OD750 readings were obtained at various time points during incubation. The results of fungicide treated samples and controls are compared. Differences in well growth that is altered relative to the control is recorded and is presumed to relate to the mode-of-action of the chemical.
A test in the YT microplate was set up using the sub-inhibitory concentration of three fungicides for which a putative MOA is known. Two fungicides, benomyl and fenpropimorph are predicted to have no effect on carbon utilization, but the third, fenpiclonil, is predicted to affect glucose uptake and utilization. The experiments were performed as described.

[1] = system: M. grisea and S. cerevisiae; type: cell-based; conditions: OD600; rich liquid media; two fold dilution series; species not given

Row | SMILES | utilization of carbon sources, fungicide treatment compared to controls (S. cerevisiae) | growth inhibition by spectrophotometric analysis [1]
1 | CCCCNC(=O)n1c(NC(=O)OC)nc2ccccc21 [benomyl] | did not result in any significant differences from the controls | 
2 | N#Cc1c[nH]cc1-c1cccc(Cl)c1Cl [fenpiclonil] | decreased utilization of glucose, raffinose and sucrose; also recorded: significant changes in the utilization of glucose, raffinose, and sucrose | 
3 | CC(Cc1ccc(C(C)(C)C)cc1)CN1C[C@@H](C)O[C@@H](C)C1 (some centres unmarked) [fenpropimorph] | did not result in any significant differences from the controls | 
4 | O=C1CCc2cccc3c2N1CC3 [pyroquilon] |  | no growth inhibition
5 | Cc1cccc2sc3nncn3c12 [tricyclazole] |  | no growth inhibition
